This note sets out measurements from patent publication US20050220906A1, “Pharmaceutical composition for treating rheumatism and the preparation thereof” (priority 2002, published 2005).

The term inhibition denotes the drop in the measured response relative to a control, in per cent.

One data set has as its system PCA in rat. In words: Passive cutis anaphylactic reaction (PCA). It is filed as in vivo. Particulars: 0.1 g/kg. How it is done: The rats were injected with the egg albumn at 10 mg/kg in the muscle. At the same time, all the rats were injected with 2×10^10 (0.2 ml) bordetella pertussis in the abdominal cavity for sensitization. 2 weeks later, all the rats were killed to sample the blood. All the blood samples were separated for preparing the serum.
60 rats, 150˜200 g, half male and half female, were divided into 6 groups at random. In the light narcosis condition induced by aether, each rat was cut the fleece in the back and injected with the 2 concentrations of anti-egg-album serum 0.1 ml under the skin at the fairless place. The serums were diluted on the rates of 1:5(d1) and 1:10(d2) before the experiment. 48 hours later, all the rats were attacked by intravenous injecting the 0.5% evans blue normal saline solution 1 ml which containing 1 mg egg albumin. 20 minutes later, the rats were killed by decapitation. The rats' back skin were dissected and turned over. According to the dark and light and area of the blue stains exudated from the vessels, all the rats were evaluated by several people. The skin stained by the evens blue were scissored and soaked in 5 ml 0.1% sodium sulfate acetone (7:3) solution for 48 hours. Then it was centrifugated to separate the supernatant liquor. The supernates were measured the optical density at the wavelength 590 nm to calculate the degree of the PCA reaction and the inhibiting percent.

The test system of the next data set is DTH caused by DNFB. In words: Delayed hypersensitivity (DTH) caused by DNFB in the mouse ear. The format is in vivo, NIH mouse. Particulars: 0.003 g/kg, administration day 0˜5. Here is the method: Each mouse was led to hypersensitivity reaction by using the 1% DNFB acetone solution on the dosage of 0.025 ml at the right place of the abdomen where the pilus had been cut yet. Using the same solution on the same place was to enhance the hypersensitivity reaction on the third day. On the fifth day, all the mice were smeared with the 1% DNFB edible oil solution at the mice's right ears on the dosage of 0.01 ml each. 24 hours later, all the mice were killed. The mouse's 2 ears were weighted by the torsion balance and the difference of the 2 ears was recorded as the DTH degree caused by the DNFB. The experiment was carried out on the different immune and administration processes.
The immune and administration processes is as following: [drawing 1]

The subject of data set [1] is pleuritis induced by the carrageenan. Briefly: Carrageenan pleuritis: exudation and inflammatory cell aggregation. It is filed as in vivo, mice. Particulars: 0.05 g/kg. How it is done:
The mice were divided into 5 groups at random and injected with 0.5% Evans blue NS solution into the caudal vein on the dosage of 0.1 ml/10 g. Then the mice were injected with the 0.03 ml 1% carrageenan in the right chest cavity with the special syring niddle. 4 hours and 32 hours after the injection, the correspondent mice were killed and opend the obdominal cavity to expose the diaphragm. 2 ml of the lotion were injected to the chest cavity by 2 times with a 1 ml injector. The lotion was collected and saved in a test tube. 20 μl of the lotion collected was added into the 400 μl WBC dilution. The WBC in the mixed dilution was counted under the microscope. The rest of the lotion was centrifuged at 3000 rpm for 10 min. The supernate of the lotion was measured the OD at the wavelength of 600 nm. The OD value of the sample should be corrected with the correspondent OD value of the pure lotion. (See the result in table 9)

For a further data set, the system named is macrophage. Briefly: CRBC phagocytosis of abdominal macrophages. Particulars: 0.005 g/kg, 7 days. The format is in vivo, mouse. Here is the method: 50 NIH mice, 18˜22 g weight, half male and half female, were divided into 5 groups and drenched with the correspondent medicine solutions on the same volumn. The administration was once a day for 7 days. 1 hour after the last administration, all the mice were injected with 0.2 ml 10% chick RBC into the abdominal carvity. 4 hours later, all the mice were killed and sampled the fluid in the abdomincal carvity. The liquor samples were dropped on the glass and counted the number of the macrophage which had phagocytized the CRBC and the number of the CRBC in one macrophage. (See the result in table 7)

The next data set deals with capillary permeability. In words: Capillary permeability induced by acetic acid in the abdominal cavity. The format is in vivo, NIH mice. Particulars: 0.15 g/kg, qd × 3. How it is done:
90 NIH mice, 18˜22 g weight, half male and half female, were divided into 9 groups and drenched with the correspondent medicine solutions of the same volumn. The medicines were drenched once a day for 3 days or just 1 time. 1 hour after the last administration, each mouse were injected with 0.7% HAC-NS solution into the abdominal cavity. At the same time, each mouse was injected with the 0.5% Evans blue-NS solution into the vessel on the dose of 0.1 ml/10 g. 30 min later; all the mice were killed by cervical disjoint. The abdominal cavity was opened and washed by the 5 ml NS. The NS used was collected and adjusted to 8 ml by the pure NS as the sample. The samples were centrifuged at 3000 rpm to get the supernate. The supernate was measured the OD at the wavelength at 590 nm. (See the result in table 8)

Data set [2] concerns croton oil-induced swelling. In words: Croton oil-induced swelling of the ears. It is filed as in vivo, NIH mice. Particulars: 0.003 g/kg, 3 days. How it is done: 60 NIH mice with weight of 18˜22 g, male and female accounting for half and half, were divided into 6 groups, which were drenched with the same volume and different dosage of drug liquid or tragacanth liquid, once a day, lasting 3 days. 1 hour after the final administration, 2% croton oil mixure of 0.02 ml was embrocated uniformly on the both sides of left ears of mice, and after 4 hours, the mice were snapped off its cervical vertebra and put to death. The left and right ears were cut down, then inflammatory and control ears were weighted by certain means. Difference of weight between left and right ears was the swelling extent of ears, results showing in table 11.

Another data set deals with AA rats. In words: Therapeutic effect on AA: swelling degree. The format is in vivo, SD rats. Particulars: 0.01 g/kg. An excerpt: (§1) 50 male SD rats were divided into 5 groups at random. The model building was same to the prevention experiment, but the correspondent medicines were drenched 13 days after the injection of the FCA. The medicines were drenched once a day for 2 weeks. The swelling degree (Δcm) was the difference of the perimeters between the value of first administration day and the other days.

A further data set relates to rat AA model. In words: Preventing effect on adjuvant arthritis (AA): swelling degree. The format is in vivo, SD rats. Particulars: 0.01 g/kg. How it is done:
(§2) 72 isogenous SD rats of the same batch, half male and half female, 180˜220 g weight, were divided randomly into 6 groups. Each group has 12 rats. Every 6 rats lived in a cage. The perimeter of the double anklejoints and the feet of the rat were measured accurately and recorded as the normal value. All the rats were drenched by the same volume of the invented medicine on the correspondent concentration or the solution of the Xihuangqi by the gastic injection. 1 hour later, all the rats were injected with 0.1 ml Freund's complete adjuvant (FCA) under the skin of the left postpedes. In the next 30 days, all the rats were drenched with the correspondent medicine once a day on the same dosage. And in these days, the rats were measured of the perimeters of the double anklejoints and the feet once a day. In this experiment, the swelling degree (Δcm) equaled to the difference value of the perimeters measured after the FCA injection and before the FCA injection. (See the result in table 1.1 and 1.2) At the end of the experiment, the major organs of the rats were weighted. (See the table 1.3, 1.4)

Data set [3] in a line: Body weight of AA rats (prevention experiment). It is filed as in vivo, SD rats. Particulars: 0.01 g/kg. Here is the method: as §2
Data set [4] is described as follows: Organ index of AA rats (prevention experiment). It is filed as in vivo, SD rats. Here is the method: as §2
A short description of data set [5]: Organ index of AA rats (Table 1.7). Particulars: 0.01 g/kg. The format is in vivo, SD rats.
Description: as §1

In the data set with PCA in rat (serum d1 (1:5)), `CN1CCC(=C2c3ccccc3CC(=O)c3sccc32)CC1` [Ketotifen] gave a PCA absorbancy of 0.033 ± 0.024 and a PCA value of 2.78 ± 1.64. In the data set on PCA in rat (serum d2 (1:10)), this compound had a PCA absorbancy of 0.027 ± 0.019 and a PCA value of 0.67 ± 1.41.

As to `C[C@@H]1C[C@H]2[C@@H]3CCC4=CC(=O)C=C[C@]4(C)[C@@]3(F)[C@@H](O)C[C@]2(C)[C@@]1(O)C(=O)CO` [cortisumman], in the data set with DTH caused by DNFB, the “Percent of ear swelling” value worked out at 13.93 ± 4.41 and the Percent of inhibition turned out to be 59.3%.

For `C[C@@H]1C[C@H]2[C@@H]3CCC4=CC(=O)C=C[C@]4(C)[C@@]3(F)[C@@H](O)C[C@]2(C)[C@@]1(O)C(=O)CO` [dexamethasone], the Tincture exudation in data set [1] (4 h) is recorded as 0.085 ± 0.045 OD. The compound also returned a Tincture exudation in [1] (32 h) of 0.063 ± 0.017 OD. Also, in the data set with macrophage, the Percent of phagocytosis was found to be 8.33 ± 10.13 % and the phagocytosis index is 1.10 ± 0.18. Also, the “Leakage of the tincture” value in the data set on capillary permeability was found to be 0.11 ± 0.07 OD. Moreover, the “Degree of ears' swelling” value in [2] came to 14.13 ± 5.75 mg. Moreover, the inhibition at 3 mg/kg in data set [2] (Mus musculus, 72 h, read-out: inhibition rate) was determined as 68.2%.

With `C[C@]12C=CC(=O)C=C1CC[C@@H]1[C@@H]2C(=O)C[C@@]2(C)[C@H]1CC[C@]2(O)C(=O)CO` [prednisone], the “Swelling degree, left anklejoint and foot” value in the data set with AA rats (1 d) is 1.78 ± 0.51 Δcm; in the data set with AA rats (2 d), 1.70 ± 0.51 Δcm; in the data set on AA rats (4 d), 1.63 ± 0.50 Δcm; in the data set with AA rats (6 d), 1.58 ± 0.50 Δcm; in the data set with AA rats (8 d) it was 1.27 ± 0.46 Δcm; in the data set on AA rats (10 d), 1.09 ± 0.54 Δcm. For the same compound, the “Swelling degree, left anklejoint and foot” value with AA rats (12 d) is on record as 0.94 ± 0.50 Δcm; in the data set with AA rats (14 d) it was 0.94 ± 0.42 Δcm; in the data set on rat AA model (1 d) it was 0.64 ± 0.14 Δcm; in the data set on rat AA model (2 d), 0.64 ± 0.16 Δcm; with rat AA model (3 d) it was 0.50 ± 0.26 Δcm; in the data set on rat AA model (9 d), 0.46 ± 0.25 Δcm. Besides, the “Swelling degree, left anklejoint and foot” value in the data set with rat AA model (12 d) is 0.72 ± 0.46 Δcm; in the data set on rat AA model (14 d), 0.87 ± 0.46 Δcm; in the data set on rat AA model (16 d), 1.28 ± 0.69 Δcm; with rat AA model (20 d) it was 1.03 ± 0.67 Δcm; with rat AA model (22 d), 1.05 ± 0.69 Δcm; in the data set on rat AA model (24 d), 0.90 ± 0.64 Δcm. Besides, the “Swelling degree, left anklejoint and foot” value with rat AA model (26 d) was 0.86 ± 0.65 Δcm; in the data set on rat AA model (28 d), 0.85 ± 0.59 Δcm. For the same compound, the “Swelling degree, right anklejoint and foot” value with AA rats (2 d) is recorded as 0.10 ± 0.13 Δcm; in the data set on AA rats (4 d) it was 0.15 ± 0.28 Δcm; with AA rats (6 d) it was 0.11 ± 0.25 Δcm; with AA rats (8 d), −0.08 ± 0.34 Δcm; with AA rats (10 d), −0.13 ± 0.28 Δcm; in the data set on AA rats (12 d), −0.26 ± 0.36 Δcm. In addition, the “Swelling degree, right anklejoint and foot” value in the data set with AA rats (14 d) is reported as −0.33 ± 0.39 Δcm. For the same compound, the “Swelling degree, left anklejoint and foot (Table 1.2)” value is 0.20 ± 0.06 Δcm with rat AA model (2 d); 0.08 ± 0.08 Δcm with rat AA model (9 d); 0.21 ± 0.16 Δcm with rat AA model (12 d); 0.44 ± 0.43 Δcm with rat AA model (14 d); 0.99 ± 0.63 Δcm in the data set with rat AA model (16 d); 0.84 ± 0.74 Δcm in the data set with rat AA model (18 d). Further, the “Swelling degree, left anklejoint and foot (Table 1.2)” value was 0.82 ± 0.72 Δcm with rat AA model (20 d); 0.79 ± 0.74 Δcm in the data set with rat AA model (22 d); 0.75 ± 0.67 Δcm in the data set with rat AA model (24 d); 0.68 ± 0.64 Δcm in the data set with rat AA model (26 d); 0.71 ± 0.67 Δcm in the data set with rat AA model (28 d). For the same compound, in data set [3], the “BW at 1 month later” value is 244 ± 31 g. For the same compound, the BW change in [3] was -21 g. Also, the “Initiative BW” value in data set [3] was 264 ± 55 g. For the same compound, the results for the “Organ index [(organ weight/body weight)/100] Liver” value in data set [4] (0.01 g/kg) and in [5] were 3.04 ± 0.20 and 3.52 ± 0.35, respectively. Moreover, the figures for the “Organ index [(organ weight/body weight)/100] Spleen” value in data set [4] (0.01 g/kg) and in data set [5] were 0.32 ± 0.08 and 0.28 ± 0.047, respectively. The “Organ index [(organ weight/body weight)/100] Thymus” value is given as 0.050 ± 0.060 in [4] (0.01 g/kg) and 0.05 ± 0.011 in data set [5]. Besides, the figures for the “Organ index [(organ weight/body weight)/100] adrenal gland” value in data set [4] (0.01 g/kg) and in data set [5] were 0.020 ± 0.004 and 0.02 ± 0.0043, respectively. For the same compound, the “atrophy of the thymus and adrenal gland” value in data set [4] (AA rats, tables 1.4 and 1.7) was “atrophied”.
